Assay results taken from patent US20240174680A1, “CDK2 INHIBITORS AND METHODS OF USING THE SAME” (Cedilla Therapeutics, Inc., priority 2021, published 2024).

Target: CDK2/Cyclin E1 (Homo sapiens, UniProt P24941)
Test: CDK2/Cyclin E1 Caliper LabChip EZ Reader mobility shift assay
Assay type: biochemical
Design: purchased Eurofins 14-475
Conditions: read-out: Caliper Assay (CDK2/CCNE1): IC50
Summary of the method: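 Substrate-to-product conversion of fluorescent peptide (1.5 μM final) read by capillary electrophoresis after 100 min reaction, EDTA-quenched. Enzyme (2.5 nM final) and ATP (100 μM final) were preincubated 30 min with inhibitor dilutions first. % activity vs concentration fitted four-parameter for IC50.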

Row | Structure (SMILES) | IC50
1 | CNC(=O)[C@@H](NC(=O)[C@H]1CN(C(=O)c2scnc2Cl)CC12CN(C(=O)[C@H]1CC1(C)C)C2)[C@@H](C)OCC1CCCCC1 [I-157B] | 0.1 to 1 µM
2 | C[C@@H](OCc1ccccc1)[C@H](NC(=O)[C@H]1CN(C(=O)c2cnn(Cc3ccccc3)c2)CC12CN(C(=O)[C@H]1CC1(C)C)C2)C(N)=O [I-176B] | 1 to 10 µM
3 | CNC(=O)[C@@H](NC(=O)[C@@H]1CN(C(=O)c2cnc(CC3CC3)s2)CC12CN(C(=O)[C@H]1CC1(C)C)C2)[C@@H](C)OCC1CCCCC1 [I-177A] | 0.1 to 1 µM
4 | CNC(=O)[C@@H](NC(=O)[C@H]1CN(C(=O)c2cnn(Cc3ccccc3)c2)CC12CN(C(=O)C(C)(C)C)C2)[C@@H](C)OCC1CCCCC1 [I-174B] | 0.1 to 1 µM
5 | CNC(=O)[C@@H](NC(=O)[C@H]1CN(C(=O)c2cnn(Cc3ccccc3)c2)CC12CN(C(=O)CC(F)(F)F)C2)[C@@H](C)OCc1ccccc1 [I-87B] | > 10 µM
6 | CNC(=O)[C@@H](NC(=O)[C@H]1CN(C(=O)c2cnn(Cc3ccccc3)c2)CC12CN(C(=O)C1CC1(C)C)C2)[C@@H](C)O (some centres unmarked) [I-88B] | > 10 µM
7 | CNC(=O)[C@@H](NC(=O)[C@H]1CN(C(=O)c2ccccn2)CC12CN(C(=O)[C@H]1CC1(C)C)C2)[C@@H](C)OCc1ccccc1 [I-45B] | > 10 µM
8 | C[C@@H](OCC1CCCCC1)[C@H](NC(=O)[C@@H]1CN(C(=O)c2cnn(Cc3ccccc3)c2)CC12CN(C(=O)[C@H]1CC1(C)C)C2)C(=O)N1CCOCC1 [I-152A] | ≤ 0.01 µM
9 | CNC(=O)[C@@H](NC(=O)[C@H]1CN(C(=O)c2n[nH]c3ccccc23)CC12CN(C(=O)[C@H]1CC1(C)C)C2)[C@@H](C)OCc1ccccc1 [I-112B] | > 10 µM
10 | CNC(=O)[C@@H](NC(=O)[C@H]1CN(C(=O)c2scnc2C(F)(F)F)CC12CN(C(=O)[C@H]1CC1(C)C)C2)[C@@H](C)OCC1CCCCC1 [I-163B] | > 10 µM
11 | CNC(=O)[C@H](CCCC1CCCCC1)NC(=O)[C@@H]1CN(C(=O)c2cnn(Cc3ccccc3)c2)CC12CN(C(=O)[C@H]1CC1(C)C)C2 [I-155A] | 0.1 to 1 µM
12 | CNC(=O)[C@@H](NC(=O)[C@@H]1CN(C(=O)c2cnn(Cc3ccccc3)c2)CC12CN(C(=O)C1(c3ccc(C(C)(C)C)cc3)CC1)C2)[C@@H](C)OCc1ccccc1 [I-80A] | > 10 µM
13 | CNC(=O)[C@@H](NC(=O)[C@H]1CN(C(=O)c2cnn(Cc3ccc(F)cc3)c2)CC12CN(C(=O)[C@H]1CC1(C)C)C2)[C@@H](C)OCc1ccc(F)cc1 [I-136B] | 0.1 to 1 µM
14 | C[C@@H](OCC1CCC(F)(F)CC1)[C@H](NC(=O)[C@H]1CN(C(=O)c2cn[nH]c2)CC12CN(C(=O)C1(C(F)(F)F)CC1)C2)C(=O)N1CCC(F)(F)CC1 [I-188B] | 1 to 10 µM
15 | C[C@@H](OCC1CCCCC1)[C@H](NC(=O)[C@H]1CN(C(=O)c2cn[nH]c2)CC12CN(C(=O)[C@H]1CC1(C)C)C2)C(=O)N1CCC(F)(F)CC1 [I-154B] | 1 to 10 µM
16 | CC1(C)C[C@@H]1C(=O)N1CC2(CN(C(=O)c3cnn(Cc4ccccc4)c3)C[C@H]2C(=O)NCCOCc2ccccc2)C1 [I-96A] | 0.1 to 1 µM
17 | CNC(=O)[C@@H](NC(=O)[C@@H]1CN(C(=O)c2n[nH]c3ccccc23)CC12CN(C(=O)[C@H]1CC1(C)C)C2)[C@@H](C)OCc1ccccc1 [I-112A] | 1 to 10 µM
18 | CNC(=O)[C@@H](NC(=O)[C@@H]1CN(C(=O)c2sc(C(C)C)nc2C)CC12CN(C(=O)[C@H]1CC1(C)C)C2)[C@@H](C)OCC1CCCCC1 [I-227A] | 0.1 to 1 µM
19 | CO[C@H]1COCC[C@@H]1NC(=O)[C@H]1CN(C(=O)c2cnn(Cc3ccccc3)c2)CC12CN(C(=O)[C@H]1CC1(C)C)C2 [I-131B] | > 10 µM

Now from value to compound:

Row | IC50 | Structure (SMILES)
20 | ≤ 0.01 µM | COC[C@H]1CCCN(C(=O)[C@@H](NC(=O)[C@@H]2CN(C(=O)c3cncs3)CC23CN(C(=O)C(C)(C)C2CC2)C3)[C@@H](C)OCC2CCCCC2)C1 [I-389]
21 | 1 to 10 µM | CC(C)(O)C(NC(=O)[C@@H]1CN(C(=O)c2cncs2)CC12CN(C(=O)[C@H]1CC1(C)C)C2)c1cccc(C2CCOCC2)n1 (some centres unmarked) [I-423]
22 | 1 to 10 µM | C[C@@H](OCC12CCC(CC1)OC2)[C@H](NC(=O)[C@@H]1CN(C(=O)c2sc(Cl)nc2Cl)CC12CN(C(=O)C(C)(C)C1CC1)C2)C(C)(C)O [I-471]
23 | ≤ 0.01 µM | C[C@@H](OCC1CCCCC1)[C@H](NC(=O)C1CN(C(=O)c2cnn(Cc3ccccc3)c2)CC12CN(C(=O)[C@H]1CC1(C)C)C2)C(=O)N1CCCC(CO)C1 (some centres unmarked) [I-105]
24 | ≤ 0.01 µM | C[C@@H](OCC1CCC(F)(F)CC1)[C@H](NC(=O)[C@@H]1CN(C(=O)c2cncs2)CC12CN(C(=O)[C@H]1CC1(C)C)C2)C(=O)N1CCC(C)(C)CC1 [I-386]
25 | ≤ 0.01 µM | CCOC(=O)[C@H]1CCCN(C(=O)[C@@H](NC(=O)[C@@H]2CN(C(=O)c3cnn(Cc4ccccc4)c3)CC23CN(C(=O)[C@H]2CC2(C)C)C3)[C@@H](C)OCC2CCCCC2)C1 [I-482]
26 | 0.01 to 0.1 µM | C[C@@H](OCC12CCC(CC1)OC2)[C@H](NC(=O)[C@@H]1CN(C(=O)c2cncs2)CC12CN(C(=O)[C@H]1CC1(C)C)C2)C(=O)N1CCC(OC(F)(F)F)CC1 [I-457]
27 | 1 to 10 µM | CC1(C)C[C@@H]1C(=O)N1CC2(CN(C(=O)c3cncs3)C[C@@H]2C(=O)N[C@@H](COCC2CCCCC2)C(=O)N2CCCCC2)C1 [I-293]
28 | ≤ 0.01 µM | COC[C@H]1CCCN(C(=O)[C@@H](NC(=O)[C@@H]2CN(C(=O)c3cncs3)CC23CN(C(=O)[C@H]2CC2(C)C)C3)[C@@H](C)O[C@@H](C)C2CCCCC2)C1 [I-369]
29 | ≤ 0.01 µM | C[C@@H](OCC1CCCCC1)[C@H](NC(=O)[C@@H]1CN(C(=O)c2cnn(Cc3ccccc3)c2)CC12CN(C(=O)[C@H]1CC1(C)C)C2)C(=O)NCCC(=O)OC(C)(C)C [I-478]
30 | > 10 µM | CC1(C)C[C@@H]1C(=O)N1CC2(CN(C(=O)c3cnn(Cc4ccccc4)c3)C[C@H]2C(=O)N[C@@H]2CCN(C3CC3)C2=O)C1 [I-259]
31 | 0.1 to 1 µM | CNC(=O)[C@@H](NC(=O)[C@@H]1CN(C(=O)c2cncs2)CC12CN(C(=O)[C@H]1CC1(C)C)C2)C1(OCc2ccccc2)CC1 [I-375]
32 | 0.01 to 0.1 µM | CNC(=O)[C@@H](NC(=O)[C@@H]1CN(C(=O)c2cnn(Cc3ccccc3)c2)CC12CN(C(=O)[C@H]1CC1(C)C)C2)[C@@H](C)OCC1C[C@@H](C)C[C@@H](C)C1 (some centres unmarked) [I-249]
33 | 0.1 to 1 µM | C[C@@H](OCc1ccccc1)[C@H](NC(=O)C1CN(C(=O)c2cnn(Cc3ccccc3)c2)CC12CN(C(=O)[C@H]1CC1(C)C)C2)C(=O)NCCN (some centres unmarked) [I-31]
34 | > 10 µM | CC1(C)C[C@@H]1C(=O)N1CC2(CN(C(=O)c3cnn(Cc4ccccc4)c3)C[C@H]2C(=O)N[C@H]2CCCN(CC3CCCCC3)C2)C1 [I-183]
35 | 0.01 to 0.1 µM | C[C@@H](OCC1CCCCC1)C(NC(=O)[C@@H]1CN(C(=O)c2cncs2)CC12CN(C(=O)[C@H]1CC1(C)C)C2)c1nnco1 (stereo in doubt) [I-415, (S)—N-((1S,2R)-2-(cyclohexylmethoxy)-1-(1,3,4-oxadiazol-2-yl)propyl)-2-((S)-2,2-dimethylcyclopropane-1-carbonyl)-6-(thiazole-5-carbonyl)-2,6-diazaspiro[3.4]octane-8-carboxamide]

Row | IC50 | Structure (SMILES)
36 | 1 to 10 µM | CC1(C)C[C@@H]1C(=O)N1CC2(CN(C(=O)c3cnn(Cc4ccccc4)c3)CC2C(=O)NC2CNCCOC2)C1 (some centres unmarked) [I-245]
37 | ≤ 0.01 µM | CNC(=O)[C@@H](NC(=O)[C@@H]1CN(C(=O)c2cncs2)CC12CN(C(=O)[C@H]1CC1(C)C)C2)[C@@H](C)OCC1CC2CCC1C2 (some centres unmarked) [I-465]
38 | 1 to 10 µM | CNC(=O)[C@@H](NC(=O)[C@@H]1CN(C(=O)c2cnn(Cc3ccccc3)c2)CC12CN(C(=O)[C@H]1CC1(C)C)C2)[C@@H](C)OCC(F)(F)F [I-204]
39 | > 10 µM | CNC(=O)[C@@H](NC(=O)[C@H]1CN(C(=O)c2cnn(Cc3ccccc3)c2)CC12CN(C(=O)[C@H]1CC1(C)C)C2)[C@H](C)OCC1CCCCC1 [I-165]
40 | ≤ 0.01 µM | C[C@@H](OCC1CCCCC1)[C@H](NC(=O)[C@@H]1CN(C(=O)c2cncs2)CC12CN(C(=O)[C@H]1CC1(C)C)C2)C(=O)N1CCOCC1 [I-198]
41 | ≤ 0.01 µM | C[C@@H](OCC1CCCCC1)[C@H](NC(=O)[C@@H]1CN(C(=O)c2cncs2)CC12CN(C(=O)[C@H]1CC1(C)C)C2)C(=O)N1CCNCC1 [I-328]
42 | 0.1 to 1 µM | CNC(=O)[C@@H](NC(=O)[C@@H]1CN(C(=O)c2nncs2)CC12CN(C(=O)[C@H]1CC1(C)C)C2)[C@@H](C)OCC1CCCCC1 [I-246]
43 | ≤ 0.01 µM | Cc1nc(C)c(C(=O)N2C[C@@H](C(=O)N[C@H](C(=O)N3CCC(C(F)(F)F)CC3)[C@@H](C)OCC34CCC(CC3)OC4)C3(C2)CN(C(=O)[C@H]2CC2(C)C)C3)s1 [I-456]
44 | ≤ 0.01 µM | COC[C@H]1CCCN(C(=O)[C@@H](NC(=O)[C@@H]2CN(C(=O)c3cncs3)CC23CN(C(=O)[C@H]2CC2(C)C)C3)[C@@H](C)OCc2cccc(F)c2)C1 [I-322]
45 | > 10 µM | CNC(=O)[C@@H](NC(=O)[C@@H]1CN(C(=O)c2cnn(Cc3ccccc3)c2)CC12CN(C(=O)[C@H]1CC1(C)C)C2)[C@@H](C)N(CC1CCCCC1)C(C)=O [I-273, (S)-6-(1-benzyl-1H-pyrazole-4-carbonyl)-N-((2S,3R)-3-(N-(cyclohexylmethyl)acetamido)-1-(methylamino)-1-oxobutan-2-yl)-2-((S)-2,2-dimethylcyclopropane-1-carbonyl)-2,6-diazaspiro[3.4]octane-8-carboxamide]
46 | 0.01 to 0.1 µM | C[C@@H](OCC1CCCCC1)[C@H](NC(=O)[C@@H]1CN(C(=O)c2cnn(CC(F)(F)F)c2)CC12CN(C(=O)[C@H]1CC1(C)C)C2)C(=O)N1CCCCC1 [I-132]
47 | ≤ 0.01 µM | COC[C@H]1CCCN(C(=O)[C@@H](NC(=O)[C@@H]2CN(C(=O)c3cncs3)CC23CN(C(=O)[C@H]2CC2(C)C)C3)[C@@H](C)OCc2ccc(Cl)cc2F)C1 [I-317]
48 | ≤ 0.01 µM | C[C@@H](OCC1CCCCC1)[C@H](NC(=O)[C@@H]1CN(C(=O)c2cnn(Cc3ccccc3)c2)CC12CN(C(=O)[C@H]1CC1(C)C)C2)C(=O)N1CC2(CNC2)C1 [I-240]
49 | > 10 µM | CNC(=O)[C@H](CO)NC(=O)C1CN(C(=O)c2cnn(Cc3ccccc3)c2)CC12CN(C(=O)[C@H]1CC1(C)C)C2 (some centres unmarked) [I-260]
50 | 0.01 to 0.1 µM | CC1(C)C[C@@H]1C(=O)N1CC2(CN(C(=O)c3cncs3)C[C@H]2C(=O)NCc2cccc(C3CCCCC3)n2)C1 [I-414]
